One block for each molecule: values may come before it. Activity calls are given as the source filed them. The rule behind the calls is not given here.
Tests used:
KCNMA1/KCNMB4 = KCNMA1/KCNMB4 (Homo sapiens, UniProt Q12791+Q86W47); assay: Inhibition of human BK alpha/beta4 channel expressed in HEK293T cells assessed as K+ outward current fraction at 10 uM at -80 mV holding potential by whole cell patch clamp method relative to control; type: cell-based
[1] = target: T1, Calcium-activated potassium channel subunit beta-4 (Homo sapiens, UniProt Q86W47); assay: Binding affinity to NT-495 fluorophore reagent labelled human BK beta4 (45 to 166 residues) incubated for 30 mins by microscale thermophoresis assay
T1 sequence (Q86W47 whole entry): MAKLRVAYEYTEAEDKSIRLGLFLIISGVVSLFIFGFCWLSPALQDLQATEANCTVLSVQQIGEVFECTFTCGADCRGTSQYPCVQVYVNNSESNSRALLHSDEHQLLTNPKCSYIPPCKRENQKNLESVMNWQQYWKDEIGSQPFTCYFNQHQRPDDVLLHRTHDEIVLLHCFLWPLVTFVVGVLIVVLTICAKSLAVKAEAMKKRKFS

[2] = target: T2, KCNMA1/KCNMB4 (Rattus norvegicus) (UniProt Q62976+Q9ESK8); assay: Inhibition of BK alpha/beta-4 in PTZ-stimulated rat hippocampal pyramidal neurons assessed as larger action potential width at 300 pA current injection at -80mV holding potential measured after 10 mins by whole cell current clamp assay; type: protein-complex assay
[3] = target: T2, KCNMA1/KCNMB4 (Rattus norvegicus); assay: Inhibition of BK alpha/beta-4 in PTZ-stimulated rat hippocampal pyramidal neurons assessed as slower decay of after hyperpolarization at 300 pA at -80mV holding potential measured after 10 mins by whole cell current clamp assay; type: protein-complex assay
[4] = target: T2, KCNMA1/KCNMB4 (Rattus norvegicus); assay: Inhibition of BK alpha/beta-4 in PTZ-stimulated rat hippocampal pyramidal neurons assessed as increase in AHP size at 300 pA at -80mV holding potential measured after 10 mins by whole cell current clamp assay; type: protein-complex assay
Rattus norvegicus [5] = species on record: Rattus norvegicus; assay: Anticonvulsant activity against PTZ-induced epileptic seizure Sprague-Dawley rat model assessed as reduction in mortality rate compound infused into hippocampal region and 10 mins later injected with PTZ and measured for 2 hrs post PTZ-stimulation; type: functional, organism-based
Rattus norvegicus [6] = species on record: Rattus norvegicus; assay: Anticonvulsant activity against PTZ-induced epileptic seizure Sprague-Dawley rat model assessed as latency time of seizures compound infused into hippocampal region and 10 mins later injected with PTZ and measured for 2 hrs post PTZ-stimulation (reference value: 108.5 +/- 8.63 sec); type: functional
Rattus norvegicus [7] = species on record: Rattus norvegicus; assay: Anticonvulsant activity against PTZ-induced epileptic seizure Sprague-Dawley rat model assessed as duration of seizure compound infused into hippocampal region and 10 mins later injected with PTZ and measured for 2 hrs post PTZ-stimulation (reference value: 376 +/- 76.43 sec); type: functional
Rattus norvegicus [8] = species on record: Rattus norvegicus; assay: Anticonvulsant activity against PTZ-induced epileptic seizures Sprague-Dawley rat model assessed as decrease in number of seizures at high stage (stage 4 and 5) compound infused into hippocampal region and 10 mins later injected with PTZ and measured for 2 hrs post-PTZ stimulation; type: functional, organism-based
Rattus norvegicus [9] = species on record: Rattus norvegicus; assay: Inhibition of field potential response in PTZ-induced epileptic seizure Sprague-Dawley rat model compound infused into hippocampal region and 10 mins later injected with PTZ and measured after 2 hrs by microarray electrode based analysis; type: functional, organism-based
Rattus norvegicus [10] = species on record: Rattus norvegicus; assay: Effect on neuronal network in PTZ-induced epileptic seizures Sprague-Dawley rat model assessed as lowered PSD at gamma wave band compound infused into hippocampal region and 10 mins later injected with PTZ and measured after 2 hrs by power spectral density analysis; type: functional, organism-based
Rattus norvegicus [11] = species on record: Rattus norvegicus; assay: Effect on neuronal network in PTZ-induced epileptic seizures Sprague-Dawley rat model assessed as lowered PSD at theta wave band compound infused into hippocampal region and 10 mins later injected with PTZ and measured after 2 hrs by power spectral density analysis; type: functional, organism-based
Rattus norvegicus [12] = species on record: Rattus norvegicus; assay: Effect on neuronal network in PTZ-induced epileptic seizures Sprague-Dawley rat model assessed as lowered PSD at alpha wave band compound infused into hippocampal region and 10 mins later injected with PTZ and measured after 2 hrs by power spectral density analysis; type: functional, organism-based
Rattus norvegicus [13] = species on record: Rattus norvegicus; assay: Effect on neuronal network in PTZ-induced epileptic seizures Sprague-Dawley rat model assessed as lowered PSD at delta wave band compound infused into hippocampal region and 10 mins later injected with PTZ and measured after 2 hrs by power spectral density analysis; type: functional, organism-based
Rattus norvegicus [14] = species on record: Rattus norvegicus; assay: Effect on neuronal network in PTZ-induced epileptic seizures Sprague-Dawley rat model assessed as lowered PSD at beta wave band compound infused into hippocampal region and 10 mins later injected with PTZ and measured after 2 hrs by power spectral density analysis; type: functional, organism-based
Rattus norvegicus [15] = species on record: Rattus norvegicus; assay: (§1) Inhibition of C-Fos expression in PTZ-induced epileptic seizures Sprague-Dawley rat model assessed as inhibition of FLI-positive granular neurons in DG region of contralateral hippocampus at 10 uM compound infused into hippocampal region and 10 mins later injected with PTZ and measured after 2 hrs by immunohistochemistry; type: functional, organism-based
Rattus norvegicus [16] = species on record: Rattus norvegicus; assay: as §1, with “pyramidal” for “granular”, “CA3” for “DG”, “ipsilateral” for “contralateral”; type: functional, organism-based
Rattus norvegicus [17] = species on record: Rattus norvegicus; assay: as §1, with “pyramidal” for “granular”, “CA3” for “DG”; type: functional, organism-based
Rattus norvegicus [18] = species on record: Rattus norvegicus; assay: (§2) Neuroprotective activity in PTZ-induced epileptic seizure Sprague-Dawley rat model assessed as inhibition of hippocampal destruction by measuring increase in Nissl stained pyramidal neurons in ipsilateral hippocampus CA3 region compound infused into hippocampal region and 10 mins later injected with PTZ and measured after 3 days by Nissl staining based microscopic analysis; type: functional, organism-based
Rattus norvegicus [19] = species on record: Rattus norvegicus; assay: as §2, with “granular” for “pyramidal”, “DG” for “CA3”; type: functional, organism-based
Rattus norvegicus [20] = species on record: Rattus norvegicus; assay: as §2, with “contralateral” for “ipsilateral”, “CA1” for “CA3”; type: functional, organism-based
Rattus norvegicus [21] = species on record: Rattus norvegicus; assay: Effect on neuronal network in PTZ-induced epileptic seizures Sprague-Dawley rat model assessed as reduced total PSD frequency waves compound infused into hippocampal region and 10 mins later injected with PTZ and measured after 2 hrs by power spectral density analysis; type: functional, organism-based
Rattus norvegicus [22] = species on record: Rattus norvegicus; assay: as §1, with “ipsilateral” for “contralateral”; type: functional, organism-based

Ratio (KCNMA1/KCNMB4): 0.56
Kd ([1]; read-out: Kd): 1100 µM
Structure (SMILES): CC[C@H](C)[C@H](NC(=O)[C@H](CC(C)C)NC(=O)CNC(=O)[C@H](Cc1ccccc1)NC(=O)[C@H](CO)NC(=O)CN)C(=O)N[C@@H](CCCCN)C(=O)N[C@H](C(=O)N[C@@H](CCCCN)C(=O)N[C@H]1CSSC[C@@H]2NC(=O)[C@H](CCCCN)NC(=O)CNC(=O)[C@H](CCC(N)=O)NC(=O)CNC(=O)[C@H](CO)NC(=O)CNC(=O)[C@H]([C@@H](C)O)NC(=O)[C@H](C(C)C)NC(=O)[C@H](CCCCN)NC(=O)[C@H](CCCCN)NC(=O)[C@@H]3CSSC[C@@H](C(=O)N[C@@H](Cc4ccc(O)cc4)C(=O)O)N[C@@H](CCCNC(=N)N)C(=O)[C@H](CSSC[C@H](NC(=O)[C@H](CCCCN)NC(=O)[C@H](CO)NC(=O)[C@H](CO)NC(=O)[C@H](C)NC(=O)[C@H](Cc4ccccc4)NC1=O)C(=O)N[C@@H](Cc1c[nH]c4ccccc14)C(=O)N[C@@H]([C@@H](C)O)C(=O)N[C@@H](C)C(=O)N3)N[C@@H](CCC(N)=O)C(=O)NC(=O)[C@H](CC(N)=O)NC(=O)[C@H](CC(N)=O)NC(=O)[C@H](CCC(N)=O)NC2=O)C(C)C

Ratio (KCNMA1/KCNMB4): 0.36
Kd ([1]; read-out: Kd): 550 µM
Structure (SMILES): CC[C@H](C)[C@H](NC(=O)[C@H](CC(C)C)NC(=O)CNC(=O)[C@H](Cc1ccccc1)NC(=O)[C@H](CO)NC(=O)CN)C(=O)N[C@@H](CC(=O)O)C(=O)N[C@H](C(=O)N[C@@H](CCCCN)C(=O)N[C@H]1CSSC[C@@H]2NC(=O)[C@H](CCCCN)NC(=O)CNC(=O)[C@H](CCC(N)=O)NC(=O)CNC(=O)[C@H](CO)NC(=O)CNC(=O)[C@H]([C@@H](C)O)NC(=O)[C@H](C(C)C)NC(=O)[C@H](CCCCN)NC(=O)[C@H](CCCCN)NC(=O)[C@@H]3CSSC[C@@H](C(=O)N[C@@H](Cc4ccc(O)cc4)C(=O)O)N[C@@H](CCCNC(=N)N)C(=O)[C@H](CSSC[C@H](NC(=O)[C@H](CCC(=O)O)NC(=O)[C@H](CO)NC(=O)[C@H](CO)NC(=O)[C@H](C)NC(=O)[C@H](Cc4ccccc4)NC1=O)C(=O)N[C@@H](Cc1c[nH]c4ccccc14)C(=O)N[C@@H](C(C)C)C(=O)N[C@@H](C)C(=O)N3)N[C@@H](CCC(N)=O)C(=O)NC(=O)[C@H](CC(N)=O)NC(=O)[C@H](CC(N)=O)NC(=O)[C@H](CCC(N)=O)NC2=O)C(C)C

Ratio (KCNMA1/KCNMB4): 0.75
Kd ([1]; read-out: Kd): 109000 µM
Structure (SMILES): CC[C@H](C)[C@H](NC(=O)[C@H](CC(C)C)NC(=O)CNC(=O)[C@H](Cc1ccccc1)NC(=O)[C@H](CO)NC(=O)CN)C(=O)N[C@@H](CC(=O)O)C(=O)N[C@H](C(=O)N[C@@H](CCCCN)C(=O)N[C@H]1CSSC[C@@H]2NC(=O)[C@H](CCCCN)NC(=O)CNC(=O)[C@H](CCC(N)=O)NC(=O)CNC(=O)[C@H](C)NC(=O)CNC(=O)[C@H]([C@@H](C)O)NC(=O)[C@H](C(C)C)NC(=O)[C@H](CCCCN)NC(=O)[C@H](CCCCN)NC(=O)[C@@H]3CSSC[C@@H](C(=O)N[C@@H](Cc4ccc(O)cc4)C(=O)O)N[C@@H](CCCNC(=N)N)C(=O)[C@H](CSSC[C@H](NC(=O)[C@H](CCC(=O)O)NC(=O)[C@H](CO)NC(=O)[C@H](CO)NC(=O)[C@H](C)NC(=O)[C@H](Cc4ccccc4)NC1=O)C(=O)N[C@@H](Cc1c[nH]c4ccccc14)C(=O)N[C@@H]([C@@H](C)O)C(=O)N[C@@H](C)C(=O)N3)N[C@@H](CCC(N)=O)C(=O)NC(=O)[C@H](CC(N)=O)NC(=O)[C@H](CC(N)=O)NC(=O)[C@H](CCC(N)=O)NC2=O)C(C)C

Second part, the molecule before the results:

Structure (SMILES): CC[C@H](C)[C@H](NC(=O)[C@H](CC(C)C)NC(=O)CNC(=O)[C@H](Cc1ccccc1)NC(=O)[C@H](CO)NC(=O)CN)C(=O)N[C@@H](CC(=O)O)C(=O)N[C@H](C(=O)N[C@@H](CCCCN)C(=O)N[C@H]1CSSC[C@@H]2NC(=O)[C@H](CCCCN)NC(=O)CNC(=O)[C@H](C)NC(=O)CNC(=O)[C@H](CO)NC(=O)CNC(=O)[C@H]([C@@H](C)O)NC(=O)[C@H](C(C)C)NC(=O)[C@H](CCCCN)NC(=O)[C@H](CCCCN)NC(=O)[C@@H]3CSSC[C@@H](C(=O)N[C@@H](Cc4ccc(O)cc4)C(=O)O)N[C@@H](CCCNC(=N)N)C(=O)[C@H](CSSC[C@H](NC(=O)[C@H](CCC(=O)O)NC(=O)[C@H](CO)NC(=O)[C@H](CO)NC(=O)[C@H](C)NC(=O)[C@H](Cc4ccccc4)NC1=O)C(=O)N[C@@H](Cc1c[nH]c4ccccc14)C(=O)N[C@@H]([C@@H](C)O)C(=O)N[C@@H](C)C(=O)N3)N[C@@H](CCC(N)=O)C(=O)NC(=O)[C@H](CC(N)=O)NC(=O)[C@H](CC(N)=O)NC(=O)[C@H](CCC(N)=O)NC2=O)C(C)C
Ratio (KCNMA1/KCNMB4): 0.74
Kd ([1]; read-out: Kd): 640 µM
inhibition [2]: Active
inhibition [3]: inactive
inhibition [4]: inactive
Activity (Rattus norvegicus [5]): inactive
Time (Rattus norvegicus [6]): 219.5 to 266.5 s
Time (Rattus norvegicus [7]): 316.66 to 353.33 s
Activity (Rattus norvegicus [8]): inactive
inhibition (Rattus norvegicus [9]): inactive
Activity (Rattus norvegicus [10]): inactive
Activity (Rattus norvegicus [11]): inactive
Activity (Rattus norvegicus [12]): inactive
Activity (Rattus norvegicus [13]): inactive
Activity (Rattus norvegicus [14]): inactive
inhibition (Rattus norvegicus [15]): inactive
inhibition (Rattus norvegicus [16]): inactive
inhibition (Rattus norvegicus [17]): inactive
Activity (Rattus norvegicus [18]): Active
Activity (Rattus norvegicus [19]): Active
Activity (Rattus norvegicus [20]): inactive
inhibition (Rattus norvegicus [21]): inactive
inhibition (Rattus norvegicus [22]): inactive

Structure (SMILES): CC[C@H](C)[C@H](NC(=O)[C@H](CC(C)C)NC(=O)CNC(=O)[C@H](Cc1ccccc1)NC(=O)[C@H](CO)NC(=O)CN)C(=O)N[C@@H](CC(=O)O)C(=O)N[C@H](C(=O)N[C@@H](CCCCN)C(=O)N[C@H]1CSSC[C@@H]2NC(=O)[C@H](CCC(=O)O)NC(=O)CNC(=O)[C@H](CCC(N)=O)NC(=O)CNC(=O)[C@H](CO)NC(=O)CNC(=O)[C@H]([C@@H](C)O)NC(=O)[C@H](C(C)C)NC(=O)[C@H](CCCCN)NC(=O)[C@H](CCCCN)NC(=O)[C@@H]3CSSC[C@@H](C(=O)N[C@@H](Cc4ccc(O)cc4)C(=O)O)N[C@@H](CC(=O)O)C(=O)[C@H](CSSC[C@H](NC(=O)[C@H](CCC(=O)O)NC(=O)[C@H](CO)NC(=O)[C@H](CO)NC(=O)[C@H](C)NC(=O)[C@H](Cc4ccccc4)NC1=O)C(=O)N[C@@H](Cc1c[nH]c4ccccc14)C(=O)N[C@@H]([C@@H](C)O)C(=O)N[C@@H](C)C(=O)N3)N[C@@H](CCC(N)=O)C(=O)NC(=O)[C@H](CC(N)=O)NC(=O)[C@H](CC(N)=O)NC(=O)[C@H](CCC(N)=O)NC2=O)C(C)C
Ratio (KCNMA1/KCNMB4): 0.8
Kd [1]: Not Active
